Data on 1 compound can be found in paper PMC12016531 (Applied and Environmental Microbiology, 2025).

In assay [1] the test system is L. monocytogenes ATCC 19111. The experiment in a line: MIC/MBC microdilution. The class given is cell-based, Listeria monocytogenes. To be noted: lowest concentration that killed 99.9%; TSB-YE; highest concentration 100 µM.
The test system of assay [2] is L. monocytogenes CICC 21632. The experiment in a line: MIC/MBC microdilution. Format: cell-based, Listeria monocytogenes. The note with it: lowest concentration that killed 99.9%; TSB-YE; highest concentration 100 µM.
The test system of assay [3] is L. monocytogenes ATCC 51780. Briefly: MIC/MBC microdilution. The class given is cell-based, Listeria monocytogenes. To be noted: lowest concentration that killed 99.9%; TSB-YE; highest concentration 100 µM. In general terms: Broth dilution looks for growth in wells or tubes with falling amounts of substance.
Assay [4] concerns L. monocytogenes ATCC 7644. The experiment in a line: MIC/MBC microdilution. The class given is cell-based, Listeria monocytogenes. To be noted: lowest concentration that killed 99.9%; TSB-YE; highest concentration 100 µM.
For another assay, the system named is L. monocytogenes LM605. Briefly: MIC/MBC microdilution. The class given is cell-based, Listeria monocytogenes. The note with it: lowest concentration that killed 99.9%; TSB-YE; highest concentration 100 µM.
The next assay has as its system L. monocytogenes NCT0890. Briefly: MIC/MBC microdilution. Format: cell-based, Listeria monocytogenes. The note with it: lowest concentration that killed 99.9%; TSB-YE; highest concentration 100 µM.
Assay [5] relates to all tested gram-negative strains. Briefly: MIC/MBC microdilution, summary over gram-negative strains. Format: cell-based. To be noted: up to 100 µM. How it is done: The microdilution method ([25]) was used to measure the MIC of mycoidesin against indicator strains (Table S2). HPLC-purified mycoidesin was weighed and dissolved in a liquid culture medium to prepare various concentrations of mycoidesin (200.00, 100.00, 50.00, 25.00, 12.50, 6.25, 3.13, 1.56, 0.78, 0.39, 0.20, and 0.10 µM). A volume of 50 µL of different concentrations of mycoidesin solutions and 50 µL culture (1 × 10^6 CFU/mL) of the indicator strain were mixed in 96-well plates. The final concentrations of mycoidesin were 100.00, 50.00, 25.00, 12.50, 6.25, 3.13, 1.56, 0.78, 0.39, 0.20, 0.10, and 0.05 µM. […] The minimum bactericidal concentration (MBC) was the lowest concentration that killed 99.9% of the bacterial population. Nisin A was purified (Cayman Chemical, USA) as previously described ([26]) and was used to measure and compare the MIC values of L. monocytogenes strains and mycoidesin.

The subject of assay [6] is L. monocytogenes ATCC19111. The experiment in a line: Intracellular accumulation of UDP-MurNAc-pentapeptide. Format: cell-based, Listeria monocytogenes. The note with it: mycoidesin 1× and 2× MIC, vancomycin 10× MIC; 60 min; chloramphenicol 130 µg/mL pre-incubation 15 min; HPLC, MS. How it is done: Bacillus cereus CMCC63301 and L. monocytogenes ATCC19111 were grown to an OD600 of 0.3 and incubated with chloramphenicol (130 µg/mL) for 15 min. Mycoidesin (1× and 2× MIC) and vancomycin (10× MIC; positive control) were added and incubated for 60 min. The cells were collected, added to boiling water, treated for 15 min, centrifuged, and the supernatant was lyophilized. The intracellular accumulation of the peptidoglycan precursor UDP-MurNAc-pentapeptide was analyzed using HPLC (Hypersil ODS column) and identified via mass spectrometry ([27]).

Assay [7] concerns Bacillus cereus CMCC63301. Briefly: Time-kill curves (OD600 and CFU). Format: cell-based. An excerpt: Cell growth was monitored hourly by measuring CFU on TSB plates and OD600 values of the cultures.
For another assay, the system named is B. cereus CMCC63301. Briefly: Potassium release and SEM (cell membrane damage). The class given is cell-based, Bacillus cereus. The note with it: potassium release 1×, 2×, 4× MIC, 1 h; SEM 2× and 4× MIC, 3 h, 30°C. As to the method: The amount of potassium released was measured using a HI96750 Potassium Photometer.
Bacillus cereus CMCC63301 and L. monocytogenes ATCC19111 were grown in TSB medium to an OD600 of 0.3. […] The cells were harvested after centrifugation (6,000 × g, 10 min), washed with PBS buffer thrice, and fixed with 2.5% (vol/vol) glutaraldehyde for 12 h at 4°C. Subsequently, the cells were subjected to gradient dehydration for 10 min, treated with isoamyl acetate for 10 min, dried with a lyophilizer for 12 h, coated with gold-palladium, and observed using a Zeiss Gemini360 instrument ([18]).

`C/C=C1\NC(=O)CNC(=O)[C@H](CCSC)NC(=O)[C@@H]2CS[C@@H](C)[C@@H](NC(=O)[C@@H]3CSC[C@@H](NC(=O)[C@H](CC(C)C)NC(=O)[C@H](CC(N)=O)NC(=O)[C@@H](N)Cc4ccc(O)cc4)C(=O)N[C@@H](C)C(=O)N[C@@H](C)C(=O)N[C@@H]([C@@H](C)CC)C(=O)N[C@@H](C)C(=O)N[C@@H](CC(=O)O)C(=O)N[C@@H](C)C(=O)N[C@@H](C)C(=O)NCC(=O)N[C@@H](CC(C)C)C(=O)N[C@@H](CCCCN)C(=O)NCC(=O)N[C@@H](CC(N)=O)C(=O)N[C@@H](Cc4ccc(O)cc4)C(=O)NCC(=O)N[C@@H](CCCCN)C(=O)N[C@@H](Cc4ccccc4)C(=O)N3)C(=O)N[C@@H](Cc3ccc(O)cc3)C(=O)N[C@H](CSC[C@@H](C(=O)NCC(=O)N[C@@H](CO)C(=O)O)NC(=O)[C@H](CO)NC(=O)[C@H](C(C)C)NC1=O)C(=O)N[C@@H](C)C(=O)N[C@@H](CCC(=O)O)C(=O)N2` [mycoidesin]: the MBC entry (in assay [1]; in assay [2]; in assay [3]; in assay [4]; against L. monocytogenes LM605; in the assay with L. monocytogenes NCT0890) was “NA (No activity was detected even at the highest concentration of mycoidesin (100 µM))” each time. The antimicrobial activity result in assay [5] is “no antimicrobial activity”. For the same compound, the “Intracellular accumulation of UDP-MurNAc-pentapeptide” value in assay [6] is reported as “observed”. The effect on growth entry is recorded as “suppressed the growth” in [7] (1× MIC (1.56 µM), TSB, 30°C, 3 h, OD600 and CFU); “completely inhibited its growth” in assay [7] (2× MIC (3.13 µM), TSB, 30°C, 3 h, OD600 and CFU). Further, the “effect on viable cells” value in assay [7] (4× and 8× MIC (6.25 and 12.50 µM), TSB, 30°C, 3 h, OD600 and CFU) was “caused cell death after 2 h of treatment”. In addition, the “type of antimicrobial effect” value was “bactericidal effect” in [7] (high concentrations (2×–8× MIC, 3.13–12.5 µM)) and “bacteriostatic effect” in assay [7] (low concentration (1× MIC, 1.56 µM)). In addition, the cell membrane damage entry in the assay on B. cereus CMCC63301 is on record as “caused damage to the cell membrane”.
